Consider one molecule from publication PMC8260868, “Protocol for improving diffraction quality of leucyl-tRNA synthetase 1 with methylation and post-crystallization soaking and cooling in cryoprotectants” (STAR Protocols, 2021).

What all share (type): binding
For experiment [1], the target named is T1, LARS1 (leucyl-tRNA synthetase 1) (Homo sapiens, UniProt Q9P2J5).
T1 construct: full length 1-1176, His-tagged in pQE-80L (BamHI/HindIII), E. coli Rosetta (DE3); tag removal not mentioned; one molecule in the asymmetric unit; lysines reductively methylated in LARS1-methyl (6KR7)
T1 sequence (Q9P2J5 whole entry): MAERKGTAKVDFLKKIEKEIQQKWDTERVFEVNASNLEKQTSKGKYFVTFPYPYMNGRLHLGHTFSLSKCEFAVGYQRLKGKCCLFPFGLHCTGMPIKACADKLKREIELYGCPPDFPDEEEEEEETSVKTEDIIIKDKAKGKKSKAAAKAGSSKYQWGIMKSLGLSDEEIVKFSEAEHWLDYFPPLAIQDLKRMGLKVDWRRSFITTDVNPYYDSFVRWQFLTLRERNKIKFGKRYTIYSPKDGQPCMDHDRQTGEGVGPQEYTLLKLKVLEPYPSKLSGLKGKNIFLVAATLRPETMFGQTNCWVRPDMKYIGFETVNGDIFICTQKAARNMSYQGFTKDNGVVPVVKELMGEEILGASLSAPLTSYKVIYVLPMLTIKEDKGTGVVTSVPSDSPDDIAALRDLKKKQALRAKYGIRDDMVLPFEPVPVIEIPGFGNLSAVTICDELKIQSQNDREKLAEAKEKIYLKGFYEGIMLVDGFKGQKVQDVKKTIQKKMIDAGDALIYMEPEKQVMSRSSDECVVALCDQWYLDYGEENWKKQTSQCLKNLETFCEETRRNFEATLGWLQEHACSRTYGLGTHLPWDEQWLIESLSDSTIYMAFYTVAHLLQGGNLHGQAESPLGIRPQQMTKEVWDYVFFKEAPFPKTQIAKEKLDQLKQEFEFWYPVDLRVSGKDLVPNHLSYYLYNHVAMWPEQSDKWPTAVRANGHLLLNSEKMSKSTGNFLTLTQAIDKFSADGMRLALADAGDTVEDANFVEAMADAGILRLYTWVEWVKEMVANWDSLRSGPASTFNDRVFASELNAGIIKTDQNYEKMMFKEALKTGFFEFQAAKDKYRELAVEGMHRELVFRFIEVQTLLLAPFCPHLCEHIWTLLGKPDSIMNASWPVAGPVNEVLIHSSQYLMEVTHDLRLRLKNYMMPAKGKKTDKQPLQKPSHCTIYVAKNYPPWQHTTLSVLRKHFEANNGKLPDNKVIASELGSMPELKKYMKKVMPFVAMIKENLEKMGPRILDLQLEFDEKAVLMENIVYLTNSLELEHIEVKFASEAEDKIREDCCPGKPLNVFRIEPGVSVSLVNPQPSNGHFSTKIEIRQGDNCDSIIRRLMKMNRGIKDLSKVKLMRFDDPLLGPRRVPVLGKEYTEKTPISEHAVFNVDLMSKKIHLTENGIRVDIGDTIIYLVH
As to the kind of experiment: microscale thermophoresis (Monolith NT.[…], RED-tris-NTA labelled His-LARS1).

In experiment [2] the target is T1, LARS1 (leucyl-tRNA synthetase 1). As to the kind of experiment: intrinsic-fluorescence DSF (Tycho NT.[…]). To be noted: 2, 5, 10, 20 mM leucine; Tris-HCl pH 7.5, 150 mM NaCl, 5 mM MgCl2, 2 mM DTT, 0.1% Tween-20; 1 mg/mL LARS1.
The target is the same in experiment [3]. Description: X-ray crystallography, co-crystal. To be noted: 2 mM leucine; bis-tris pH 6.5, 1.6 M ammonium sulfate; LARS1-Leu^syn, synthetic site.

Usually Kd stands for the concentration at which binding is half-saturated. Lower therefore signals a tighter complex. `CC(C)C[C@H](N)C(=O)O` [L-Leucine] had a Kd in experiment [1] of 119 ± 63.1 µM. In addition, the Ti result in experiment [2] is “LARS1 was incubated with leucine and the inflection temperature (Ti) was measured”. In addition, the “X-ray crystallography, co-crystal” value in experiment [3] was “prepare LARS1-Leu^syn crystals subsequently deposited in PDB with the code 6KQY”.
